Holding throughout (type): in vivo, Sprague–Dawley rats
Data set [1] can be described thus: Biliary (hepatobiliary) excretion in rats after a 30-min infusion of Kang-Ai injection. The procedure: (§1) For urine sampling, the rats were housed singly in metabolic cages. And then, the urine samples were collected at 0–4, 4–8 and 8–12 h after starting infusion and were weighed. Likewise, bile samples were also collected at 0–3, 3–6, 6–9 and 9–12 h after starting infusion and were weighed. The urine and bile collection tubes were all frozen at − 80 °C.
(§2) Pharmacokinetic parameters were estimated by non-compartmental analysis using WinNonlin 6.3 software (Pharsight, NC, US). Data are presented as the mean ± SD (n = 3). The area under the concentration–time curve up to the last measured point in time (AUC0-t) was calculated using the trapezoidal rule. The total plasma clearance (CLtot, p) was calculated by dividing the compound dose by the AUC0-∞, and the distribution volume at steady state (VSS) was estimated by multiplying the CLtot, p by the mean residence time (MRT). The renal excretory clearance (CLR) and hepatobiliary (CLB) was determined by dividing the cumulative amount excreted into urine (Cum.Ae-U) and bile (Cum.Ae-B) by the plasma AUC0-∞, respectively. The fractions of dose excreted into urine (fe-U) and the fractions of dose excreted into bile (fe-B) were established using the relationship Cum.Ae-U/Dose and Cum.Ae-B/Dose, respectively. Mean differences between treatment and control groups were analyzed by two-tailed unpaired Student’s t test by Graphpad Prism V5 software (SanDiego, CA). The level of significance was set at p < 0.05 (∗), p < 0.01 (∗∗) or p < 0.001 (∗∗∗).

Data set [2] can be described thus: Urinary (renal) excretion in rats after a 30-min infusion of Kang-Ai injection. The procedure:
as §1, §2

Data set [3] is described as follows: Plasma pharmacokinetics in rats after a 30-min intravenous infusion of Kang-Ai injection. The procedure: Specific pathogen free (SPF) grade male Sprague–Dawley rats (250 ± 20) g were provided by the Experimental Animal Center of Zhengzhou University (Zhengzhou, China). These rats were kept in a designated animal room at constant temperature (22 ± 2) °C and humidity (50 ± 20) % with 12 h of light/dark per day and free access to water and food. All protocols of animal experiments were approved in accordance with the Regulations of Experimental Animal Administration issued by the Ethics Review Committee for Animal Experimentation of Jinan University (Ethical Review NO. 20190301010). Prior to the experiments, the rats were fasted for 12 h but with free access to water. After study use, the rats were euthanized with CO2 gas.
The rats in this study all received a single 30-min intravenous infusion of Kang-Ai injection via the tail veins using TYD01-02 infusion pumps (Lead Fluid, Baoding, China). The dose was derived from the label daily dose of Kang-Ai injection (60 mL/person, once daily) according to dose normalization by body surface area. For plasma pharmacokinetic studies, the rats were randomly received a single intravenous 30 min-bolus dose at 6 mL/kg. Blood samples (100 μL) were collected from the rats’ external jugular veins into heparinized polypropylene tubes at 5, 15, 30, 45 min, and 1, 1.5, 2, 3, 4, 6, 8, 12 h. After gently shaking for 10 s, the blood samples were centrifuged at 13000 g for 10 min to yield plasma samples, which were kept frozen at − 80 °C until analysis.
as §2

[4] abbreviates: rat bile 0–12 h, Kang-Ai injection 6 mL/kg iv.
Where [5] appears, read: rat urine 0–12 h, Kang-Ai injection 6 mL/kg iv.
The mark [6] stands for this setting: male, Sprague-Dawley, rat, in vivo, iv.

Values joined by “and” are separate entries in the source; they are usually repeats but may differ in a detail not shown here. Identical values can stand only once. Like-named read-outs stand apart in the source and are kept apart here.

For the compound `O=C1C=CC[C@@H]2[C@H]3C[C@H](O)CN4CCC[C@@H](CN12)[C@@H]34` [Compound A6, 9α-hydroxysophocarpine], in data set [1] (rat, in vivo, iv), the “CLB (hepatobiliary clearance)” value is 5.86 ± 1.10 mL/h and the “fe-B,0–12h (fraction of dose excreted into bile)” value turned out to be 12.50 ± 1.32%. For the same compound, in data set [2] (rat, in vivo, iv), the “CLR (renal excretory clearance)” value is recorded as 6.23 ± 2.97 mL/h and the “fe-U,0–12h (fraction of dose excreted into urine)” value stood at 12.92 ± 4.98%. In data set [3] (rat, in vivo, iv), the “CLtot, p” value turned out to be 47.70 ± 10.72 mL/h; the Cmax was determined as 344 ± 40.7 nM; the VSS was determined as 93.63 ± 24.86 mL; the t1/2 was found to be 2.16 ± 1.28 h.

With `CC(C)=CCC[C@](C)(O[C@@H]1O[C@H](CO)[C@@H](O)[C@H](O)[C@H]1O)[C@H]1CC[C@]2(C)[C@@H]1[C@H](O)C[C@@H]1[C@@]3(C)CC[C@H](O)C(C)(C)[C@@H]3[C@@H](O)C[C@]12C` [Compound C2, Ginsenoside F1], in data set [1] (setting [4]), the “fe-B,0–12h (fraction of dose excreted into bile)” value is given as 24.20 ± 4.93%. In data set [2] (setting [5]), the “fe-U,0–12h (fraction of dose excreted into urine)” value turned out to be 23.37 ± 7.94%.

Take `CC(C)(O)[C@@H]1CC[C@](C)([C@H]2[C@@H](O)C[C@@]3(C)[C@@H]4C[C@H](O[C@@H]5O[C@H](CO)[C@@H](O)[C@H](O)[C@H]5O)[C@H]5C(C)(C)[C@@H](O[C@@H]6OC[C@@H](O)[C@H](O)[C@H]6O[C@@H]6O[C@H](CO)[C@@H](O)[C@H](O)[C@H]6O)CC[C@@]56C[C@@]46CC[C@]23C)O1` [Compound B4, Astragaloside VI]: the “fe-U,0–12h (fraction of dose excreted into urine)” value in data set [2] (setting [5]) is 63.43 ± 11.75%.

For the compound `O=c1cccc2n1C[C@H]1C[C@@H]2CN2CC[C@H](O)C[C@H]12` [Compound A5, Baptifoline], in data set [1] (setting [4]), the “fe-B,0–12h (fraction of dose excreted into bile)” value is reported as 10.30 ± 1.11%. Moreover, the “fe-U,0–12h (fraction of dose excreted into urine)” value in data set [2] (setting [5]) is 37.56 ± 15.13%. For the same compound, the t1/2 in data set [3] (rat plasma, 30-min iv infusion of Kang-Ai injection 6 mL/kg) is 2.15 ± 0.50 h. Further, in data set [3] (rat plasma, 30-min iv infusion of Kang-Ai injection 6 mL/kg, read-out: Cmax), the Cmax turned out to be 264 ± 47.2 nM.

As to `CC(C)=CCC[C@](C)(O[C@@H]1O[C@H](CO[C@@H]2O[C@@H](CO)[C@H](O)[C@H]2O)[C@@H](O)[C@H](O)[C@H]1O)[C@H]1CC[C@]2(C)[C@@H]1[C@H](O)C[C@@H]1[C@@]3(C)CC[C@H](O)C(C)(C)[C@@H]3[C@@H](O[C@@H]3O[C@H](CO)[C@@H](O)[C@H](O)[C@H]3O)C[C@]12C` [Compound C11, Ginsenoside Re4], the “fe-U,0–12h (fraction of dose excreted into urine)” value in data set [2] (rat, in vivo, iv) stood at 48.30 ± 10.27%.

For the compound `C=C(CCC=C(C)C)[C@H]1CC[C@]2(C)[C@@H]1[C@H](O)C[C@@H]1[C@@]3(C)CC[C@H](O)C(C)(C)[C@@H]3[C@@H](O[C@@H]3O[C@H](CO)[C@@H](O)[C@H](O)[C@H]3O)C[C@]12C` [Compound E1, Ginsenoside Rk3], in data set [1] (rat, in vivo, iv), the “fe-B,0–12h (fraction of dose excreted into bile)” value is on record as 27.80 ± 7.01%.

With `CC(C)(O[C@@H]1O[C@H](CO)[C@@H](O)[C@H](O)[C@H]1O)[C@@H]1CC[C@](C)([C@H]2[C@@H](O)C[C@@]3(C)[C@@H]4C[C@H](O)[C@H]5C(C)(C)[C@@H](O[C@@H]6OC[C@@H](O)[C@H](O)[C@H]6O[C@@H]6O[C@H](CO)[C@@H](O)[C@H](O)[C@H]6O)CC[C@@]56C[C@@]46CC[C@]23C)O1` [Compound B5, Astragaloside V], the “fe-U,0–12h (fraction of dose excreted into urine)” value in data set [2] (rat, in vivo, iv) was 51.36 ± 7.44%.

On to `O=c1cccc([C@@H]2C[C@H](CO)[C@H]3CCCCN3C2)[nH]1` [Compound A8, Mamanine], for which, in data set [1] (rat, in vivo, iv), the “CLB (hepatobiliary clearance)” value was 2.67 ± 0.46 mL/h and the “fe-B,0–12h (fraction of dose excreted into bile)” value amounted to 34.12 ± 4.23%. Besides, in data set [2] (rat, in vivo, iv), the “CLR (renal excretory clearance)” value is given as 1.23 ± 0.50 mL/h and the “fe-U,0–12h (fraction of dose excreted into urine)” value amounted to 15.28 ± 5.11%. In data set [3] (rat, in vivo, iv), the “CLtot, p” value came to 7.93 ± 1.77 mL/h; the concentration peaked (Cmax) at 421 ± 68.1 nM; the VSS was 16.89 ± 5.16 mL; the t1/2 worked out at 2.32 ± 1.03 h.

For the compound `CC(C)=CCC[C@](C)(O[C@@H]1O[C@H](CO[C@@H]2O[C@H](CO)[C@@H](O)[C@H](O)[C@H]2O)[C@@H](O)[C@H](O)[C@H]1O)[C@H]1CC[C@]2(C)[C@@H]1[C@H](O)C[C@@H]1[C@@]3(C)CC[C@H](O)C(C)(C)[C@@H]3[C@@H](O[C@@H]3O[C@H](CO)[C@@H](O)[C@H](O)[C@H]3O)C[C@]12C` [Compound C12, Notoginsenoside R3], in data set [2] (rat, in vivo, iv), the “fe-U,0–12h (fraction of dose excreted into urine)” value was 36.16 ± 7.04%.

Turning to `C=C(CCC=C(C)C)[C@H]1CC[C@]2(C)[C@@H]1[C@H](O)C[C@@H]1[C@@]3(C)CC[C@H](O)C(C)(C)[C@@H]3[C@@H](O[C@@H]3O[C@H](CO)[C@@H](O)[C@H](O)[C@H]3O[C@@H]3O[C@@H](C)[C@H](O)[C@@H](O)[C@H]3O)C[C@]12C` [Compound E3, Ginsenoside Rg6], the “fe-B,0–12h (fraction of dose excreted into bile)” value in data set [1] (rat, in vivo, iv) was 31.31 ± 6.25%.

Consider `CC(C)=CCC[C@](C)(O[C@@H]1O[C@H](CO[C@@H]2OC[C@H](O)[C@H](O)[C@H]2O)[C@@H](O)[C@H](O)[C@H]1O)[C@H]1CC[C@]2(C)[C@@H]1[C@H](O)C[C@@H]1[C@@]3(C)CC[C@H](O)C(C)(C)[C@@H]3[C@@H](O)C[C@]12C` [Compound C4, Ginsenoside F3], for which, in data set [1] (setting [6]), the “fe-B,0–12h (fraction of dose excreted into bile)” value is listed as 67.93 ± 8.80%. The “fe-U,0–12h (fraction of dose excreted into urine)” value in data set [2] (setting [6]) worked out at 24.46 ± 3.37%.

Take `CC(C)(O[C@@H]1O[C@H](CO)[C@@H](O)[C@H](O)[C@H]1O)[C@@H]1CC[C@](C)([C@H]2[C@@H](O)C[C@@]3(C)[C@@H]4C[C@H](O)[C@H]5C(C)(C)[C@@H](O[C@@H]6OC[C@@H](O)[C@H](O)[C@H]6O)CC[C@@]56C[C@@]46CC[C@]23C)O1` [Compound B1, Isoastragaloside IV]: in data set [1] (rat, in vivo, iv), the “fe-B,0–12h (fraction of dose excreted into bile)” value was 30.40 ± 3.79%.

For the compound `CC(C)=CC/C=C(/C)[C@H]1CC[C@]2(C)[C@@H]1[C@H](O)C[C@@H]1[C@@]3(C)CC[C@H](O)C(C)(C)[C@@H]3[C@@H](O[C@@H]3O[C@H](CO)[C@@H](O)[C@H](O)[C@H]3O[C@@H]3O[C@@H](C)[C@H](O)[C@@H](O)[C@H]3O)C[C@]12C` [Compound E4, Ginsenoside F4], the “fe-B,0–12h (fraction of dose excreted into bile)” value in data set [1] (rat, in vivo, iv) was determined as 29.36 ± 3.14%.

For the compound `CC(C)=CCC[C@](C)(O[C@@H]1O[C@H](CO)[C@@H](O)[C@H](O)[C@H]1O)[C@H]1CC[C@]2(C)[C@@H]1[C@H](O)C[C@@H]1[C@@]3(C)CC[C@H](O[C@@H]4O[C@H](CO)[C@@H](O)[C@H](O)[C@H]4O)C(C)(C)[C@@H]3CC[C@]12C` [Compound D1, Ginsenoside F2], the “fe-B,0–12h (fraction of dose excreted into bile)” value in data set [1] (setting [4]) is 7.46% and 7.46 ± 2.11%.

As to `CC(C)=CC/C=C(\C)[C@H]1CC[C@]2(C)[C@@H]1[C@H](O)C[C@@H]1[C@@]3(C)CC[C@H](O)C(C)(C)[C@@H]3[C@@H](O[C@@H]3O[C@H](CO)[C@@H](O)[C@H](O)[C@H]3O)C[C@]12C` [Compound E2, Ginsenoside Rh4], the “fe-B,0–12h (fraction of dose excreted into bile)” value in data set [1] (setting [4]) was found to be 46.95 ± 6.46%.

As to `CC(C)=CCC[C@](C)(O[C@@H]1O[C@H](CO)[C@@H](O)[C@H](O)[C@H]1O)[C@H]1CC[C@]2(C)[C@@H]1[C@H](O)C[C@@H]1[C@@]3(C)CC[C@H](O)C(C)(C)[C@@H]3[C@@H](O[C@@H]3O[C@H](CO)[C@@H](O)[C@H](O)[C@H]3O[C@@H]3OC[C@@H](O)[C@H](O)[C@H]3O)C[C@]12C` [Compound C10, Ginsenoside R1], in data set [2] (setting [5]), the “fe-U,0–12h (fraction of dose excreted into urine)” value is given as 40.28 ± 5.48%.

Turning to `CC(C)=CCC[C@](C)(O[C@@H]1O[C@H](CO)[C@@H](O)[C@H](O)[C@H]1O)[C@H]1CC[C@]2(C)[C@@H]1[C@H](O)C[C@@H]1[C@@]3(C)CC[C@H](O)C(C)(C)[C@@H]3[C@@H](O[C@@H]3O[C@H](CO)[C@@H](O)[C@H](O)[C@H]3O[C@@H]3O[C@H](CO)[C@@H](O)[C@H](O)[C@H]3O)C[C@]12C` [Compound C13, 20-Gluco-Ginsenoside Rf], the “fe-U,0–12h (fraction of dose excreted into urine)” value in data set [2] (rat, in vivo, iv) was determined as 38.72 ± 6.57%.

For the compound 9α-hydroxysophoramine [Compound A4], the “fe-B,0–12h (fraction of dose excreted into bile)” value in data set [1] (rat, in vivo, iv) is 11.14 ± 1.05%. The “fe-U,0–12h (fraction of dose excreted into urine)” value in data set [2] (rat, in vivo, iv) is reported as 42.80 ± 14.69%.
